From patent US7598245B2 (Vertex Pharmaceuticals Incorporated, priority 2003, dated 2009)

Assays:
GSK-3β (AA 1-420) = GSK-3β (AA 1-420) (Homo sapiens, UniProt P49841); test: Inhibition of GSK-3, coupled enzyme system; format: biochemical; settings: 20 μM ATP, 30° C.
Protocol: Compounds are screened for their ability to inhibit GSK-3β (AA 1-420) activity using a standard coupled enzyme system [Fox et al. Protein Sci. 1998, 7, 2249]. Reactions are carried out in a solution containing 100 mM HEPES (pH 7.5), 10 mM MgCl2, 25 mM NaCl, 300 μM NADH, 1 mM DTT and 1.5% DMSO. Final substrate concentrations in the assay are 20 μM ATP (Sigma Chemicals, St Louis, Mo.) and 300 μM peptide (American Peptide, Sunnyvale, Calif.). Reactions are carried out at 30° C. and 20 nM GSK-3β. Final concentrations of the components of the coupled enzyme system are 2.5 mM phosphoenolpyruvate, 300 μM NADH, 30 μg/ml pyruvate kinase and 10 μg/ml lactate dehydrogenase.
An assay stock buffer solution is prepared containing all of the reagents listed above with the exception of ATP and the test compound of interest. The assay stock buffer solution (175 μl) is incubated in a 96 well plate with 5 μl of the test compound of interest at final concentrations spanning 0.002 μM to 30 μM at 30° C. for 10 min. Typically, a 12 point titration is conducted by preparing serial dilutions (from 10 mM compound stocks) with DMSO of the test compounds in daughter plates. The reaction is initiated by the addition of 20 μl of ATP (final concentration 20 μM). Rates of reaction are obtained using a Molecular Devices Spectramax plate reader (Sunnyvale, Calif.) over 10 min at 30° C. The Ki values are determined from the rate data as a function of inhibitor concentration.

c-KIT = molecular target: T1, c-KIT (Homo sapiens, UniProt P10721); test: Inhibition of c-KIT, radiometric filter-binding assay; format: biochemical; settings: 700 μM ATP, pE4Y substrate
T1 construct: 0.02% BSA and 25 nM c-KIT
Protocol: Compounds are screened for their ability to inhibit c-KIT activity using a radiometric filter-binding assay. This assay monitors the ^33P incorporation into a substrate poly(Glu, Tyr) 4:1 (pE4Y). Reactions are carried out in a solution containing 100 mM HEPES (pH 7.5), 10 mM MgCl2, 25 mM NaCl, 1 mM DTT, 0.01% BSA and 2.5% DMSO. Final substrate concentrations in the assay were 700 μM ATP and 0.5 mg/mL pE4Y (both from Sigma Chemicals, St Louis, Mo.). The final concentration of compounds is generally between 0.01 and 5 μM. Typically, a 12-point titration is conducted by preparing serial dilutions from 10 mM DMSO stock of test compound. Reactions were carried out at room temperature.
Two assay solutions are prepared. Solution 1 contains 100 mM HEPES (pH 7.5), 10 mM MgCl2, 25 mM NaCl, 1 mg/ml pE4Y and 1.4 mM ATP (containing 0.5 μCi of [γ-^33P]ATP for each reaction). Solution 2 contains 100 mM HEPES (pH 7.5), 10 mM MgCl2, 25 mM NaCl, 2 mM DTT, 0.02% BSA and 25 nM c-KIT. The assay is run on a 96 well plate by mixing 33 μL of Solution1 and 1.65 μL of the test compounds. The reaction is initiated with 33 μL of Solution2. After incubation for 20 minutes at room temperature, the reaction was stopped with 50 μL of 10% TCA containing 0.2 mM of ATP. All of the reaction volume is then transferred to a filter plate and washed with 5% TCA by a Harvester9600 from TOMTEC (Hamden, Conn.). The amount of ^33P incorporation into pE4y is analyzed by a Packard TopCount Microplate Scintillation Counter (Meriden, Conn.). The data is fitted using Prism software to get an IC50 or Ki.

Sequence of GSK-3β (AA 1-420) (P49841 whole entry, the tested form may be a part): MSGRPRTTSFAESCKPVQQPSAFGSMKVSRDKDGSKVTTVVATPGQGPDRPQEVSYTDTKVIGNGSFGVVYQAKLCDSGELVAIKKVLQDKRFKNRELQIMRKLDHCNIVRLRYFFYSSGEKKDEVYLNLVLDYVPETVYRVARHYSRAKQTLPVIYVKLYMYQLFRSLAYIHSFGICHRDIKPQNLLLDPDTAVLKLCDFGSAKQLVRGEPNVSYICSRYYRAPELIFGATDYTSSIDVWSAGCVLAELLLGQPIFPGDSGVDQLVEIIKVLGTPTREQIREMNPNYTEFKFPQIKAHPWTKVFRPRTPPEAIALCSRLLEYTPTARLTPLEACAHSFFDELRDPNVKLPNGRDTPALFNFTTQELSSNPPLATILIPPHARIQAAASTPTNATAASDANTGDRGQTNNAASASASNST
T1 sequence (P10721 26-976): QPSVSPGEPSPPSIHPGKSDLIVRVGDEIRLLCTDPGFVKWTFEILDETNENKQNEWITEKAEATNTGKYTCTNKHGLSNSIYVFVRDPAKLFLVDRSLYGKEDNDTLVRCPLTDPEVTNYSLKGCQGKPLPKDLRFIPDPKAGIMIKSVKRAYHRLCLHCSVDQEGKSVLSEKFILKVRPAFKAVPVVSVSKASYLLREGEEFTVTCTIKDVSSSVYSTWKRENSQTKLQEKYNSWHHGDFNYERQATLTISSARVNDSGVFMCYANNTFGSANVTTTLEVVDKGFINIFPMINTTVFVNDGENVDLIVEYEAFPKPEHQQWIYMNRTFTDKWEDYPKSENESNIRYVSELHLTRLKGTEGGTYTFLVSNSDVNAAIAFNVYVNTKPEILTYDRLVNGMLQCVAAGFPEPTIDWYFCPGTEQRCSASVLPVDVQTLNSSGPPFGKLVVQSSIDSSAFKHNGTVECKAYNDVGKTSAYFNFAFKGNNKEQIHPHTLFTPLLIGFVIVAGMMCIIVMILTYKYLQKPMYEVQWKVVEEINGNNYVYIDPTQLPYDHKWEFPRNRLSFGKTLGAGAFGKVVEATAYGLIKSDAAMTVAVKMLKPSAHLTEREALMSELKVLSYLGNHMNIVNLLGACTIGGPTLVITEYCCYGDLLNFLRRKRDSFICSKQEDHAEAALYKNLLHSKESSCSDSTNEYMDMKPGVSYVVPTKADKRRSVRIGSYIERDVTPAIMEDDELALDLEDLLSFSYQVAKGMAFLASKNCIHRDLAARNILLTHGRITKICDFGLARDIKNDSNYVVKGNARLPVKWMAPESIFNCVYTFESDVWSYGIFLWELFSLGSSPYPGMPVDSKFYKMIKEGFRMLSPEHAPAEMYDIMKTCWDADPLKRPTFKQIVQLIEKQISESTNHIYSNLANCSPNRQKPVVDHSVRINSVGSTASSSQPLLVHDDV

Compound | Ki (GSK-3β (AA 1-420)) | Ki (c-KIT)
CC(C)C(=O)N1CCCN(c2cc(-n3cnc(Nc4ccccc4)n3)ccn2)CC1 [Compound I-69] | > 1 µM | –
CC(=O)N1[C@H](C)CN(c2cc(-n3cnc(Nc4ccc(NC(=O)c5cccs5)cc4)n3)ccn2)C[C@@H]1C [Compound I-80] | > 1 µM | < 0.05 µM
c1ccc(Nc2ncn(-c3ccnc(N4CCCCCCC4)c3)n2)cc1 [Compound I-52] | 0.5 to 1 µM | –
CCCN(CCO)c1cc(-n2cnc(Nc3ccccc3)n2)ccn1 [Compound I-58] | < 0.5 µM | < 0.05 µM
CN(Cc1cccnc1)c1cc(-n2cnc(Nc3ccccc3)n2)ccn1 [Compound I-57] | < 0.5 µM | –
CN(C)CCCN(C)c1cc(-n2cnc(Nc3ccccc3)n2)ccn1 [Compound I-53] | > 1 µM | –
c1ccc(-n2cnc(Nc3ccc4c(c3)OCCO4)n2)cc1 [Compound I-44] | > 1 µM | < 0.05 µM
CN(Cc1ccccc1)c1cc(-n2cnc(Nc3ccccc3)n2)ccn1 [Compound I-55] | > 1 µM | < 0.05 µM
CC(C)CC(=O)N1CCCN(c2cc(-n3cnc(Nc4ccccc4)n3)ccn2)CC1 [Compound I-70] | > 1 µM | –
O=c1[nH]c2ccccc2n1C1CCN(c2cc(-n3cnc(Nc4ccccc4)n3)ccn2)CC1 [Compound I-63] | > 1 µM | –
CC(=O)N1[C@H](C)CN(c2cc(-n3cnc(Nc4ccc(NC(=O)c5ccco5)cc4)n3)ccn2)C[C@@H]1C [Compound I-81, Furan-2-carboxylic acid (4-{1-[2-(4-acetyl-3,5-dimethyl-piperazin-1-yl)-pyridin-4-yl]-1H-[1,2,4]triazol-3-ylamino}-phenyl)-amide] | > 1 µM | 0.05 to 0.5 µM
CC1CCCN1c1cc(-n2cnc(Nc3ccccc3)n2)ccn1 (centres unmarked) [Compound I-56] | < 0.5 µM | < 0.05 µM
CCCC(=O)N1CCCN(c2cc(-n3cnc(Nc4ccccc4)n3)ccn2)CC1 [Compound I-68] | > 1 µM | –
CCN(CC)CCNc1cc(-n2cnc(Nc3ccccc3)n2)ccn1 [Compound I-60] | > 1 µM | –
CCOc1ccc(Nc2ncn(-c3ccccc3)n2)cc1 [Compound I-47] | > 1 µM | < 0.05 µM
CC(C)CCN(C)c1cc(-n2cnc(Nc3ccccc3)n2)ccn1 [Compound I-62, methyl-(3-methyl-butyl)-[4-(3-phenylamino-[1,2,4]triazol-1-yl)-pyridin-2-yl]-amine] | < 0.5 µM | –
c1ccc(Nc2ncn(-c3ccnc(N4CCCCC4)c3)n2)cc1 [Compound I-49, phenyl-[1-(3,4,5,6-tetrahydro-2H-[1,2′]bipyridinyl-4′-yl)-1H-[1,2,4]triazol-3-yl]-amine] | 0.5 to 1 µM | –
CCN(CCO)c1cc(-n2cnc(Nc3ccccc3)n2)ccn1 [Compound I-54] | < 0.5 µM | –
c1ccc(Nc2ncn(-c3ccnc(NC4CCCCC4)c3)n2)cc1 [Compound I-50] | 0.5 to 1 µM | –
COCCN(C)c1cc(-n2cnc(Nc3ccccc3)n2)ccn1 [Compound I-59, (2-methoxy-ethyl)-methyl-[4-(3-phenylamino-[1,2,4]triazol-1-yl)-pyridin-2-yl]-amine] | < 0.5 µM | –
CN(CCO)c1cc(-n2cnc(Nc3ccccc3)n2)ccn1 [Compound I-51] | < 0.5 µM | –
CCOC(=O)c1ccc(Nc2ncn(-c3ccnc(N4CCCN(C(C)=O)CC4)c3)n2)cc1 [Compound I-76] | > 1 µM | –
CN1C(C)(C)CC(Nc2cc(-n3cnc(Nc4ccccc4)n3)ccn2)CC1(C)C [Compound I-61] | > 1 µM | –
O=C(C1CCCO1)N1CCN(c2cc(-n3cnc(Nc4ccccc4)n3)ccn2)CC1 (centres unmarked) [Compound I-64] | > 1 µM | –

Further lines, results first:

Ki (GSK-3β (AA 1-420)) | Ki (c-KIT) | Compound
> 1 µM | 0.05 to 0.5 µM | CCCNC(=O)Nc1ccc(Nc2ncn(-c3ccnc(N4C[C@@H](C)N(C(C)=O)[C@@H](C)C4)c3)n2)cc1 [Compound I-99]
< 0.5 µM | – | O=C(CC1CCCC1)Nc1cc(-n2cnc(Nc3ccccc3)n2)ccn1 [Compound I-94, 2-Cyclopentyl-N-[4-(3-phenylamino-[1,2,4]triazol-1-yl)-pyridin-2-yl]-acetamide]
< 0.5 µM | – | O=C(CCc1ccccc1)Nc1cc(-n2cnc(Nc3ccccc3)n2)ccn1 [Compound I-95]
> 1 µM | 0.05 to 0.5 µM | CC(=O)N1[C@H](C)CN(c2cc(-n3cnc(Nc4ccc(N5CCN(C(=O)OC(C)(C)C)CC5)cc4)n3)ccn2)C[C@@H]1C [Compound I-97, 4-(4-{1-[2-(4-Acetyl-3,5-dimethyl-piperazin-1-yl)-pyridin-4-yl]-1H-[1,2,4]triazol-3-ylamino}-phenyl)-piperazine-1-carboxylic acid tert-butyl ester]
> 1 µM | 0.05 to 0.5 µM | CC(=O)N1[C@H](C)CN(c2cc(-n3cnc(Nc4ccc(NC(=O)OCC(C)C)cc4)n3)ccn2)C[C@@H]1C [Compound I-90]
> 1 µM | – | c1ccc(-n2cnc(Nc3ccc(N4CCOCC4)nc3)n2)cc1 [Compound I-134]
> 1 µM | 0.05 to 0.5 µM | CC(=O)N1[C@H](C)CN(c2cc(-n3cnc(Nc4ccc(NC(=O)OCC(C)(C)C)cc4)n3)ccn2)C[C@@H]1C [Compound I-91]
> 1 µM | 0.05 to 0.5 µM | CC(=O)N1[C@H](C)CN(c2cc(-n3cnc(Nc4ccc(NC(=O)NC(C)C)cc4)n3)ccn2)C[C@@H]1C [Compound I-100]
> 1 µM | 0.05 to 0.5 µM | CC(=O)N1[C@H](C)CN(c2cc(-n3cnc(Nc4ccc(NC(=O)NC(C)(C)C)cc4)n3)ccn2)C[C@@H]1C [Compound I-101]
> 1 µM | – | CN1CCN(c2ccc(Nc3ncn(-c4ccccc4)n3)cn2)CC1 [Compound I-135]
> 1 µM | 0.05 to 0.5 µM | CCNC(=O)Nc1ccc(Nc2ncn(-c3ccnc(N4C[C@@H](C)N(C(C)=O)[C@@H](C)C4)c3)n2)cc1 [Compound I-98, 1-(4-{1-[2-(4-Acetyl-3,5-dimethyl-piperazin-1-yl)-pyridin-4-yl]-1H-[1,2,4]triazol-3-ylamino}-phenyl)-3-ethyl-urea]
> 1 µM | – | c1ccc(-n2cnc(Nc3ccnc(NCCN4CCOCC4)c3)n2)cc1 [Compound I-107]
> 1 µM | 0.05 to 0.5 µM | CC(=O)N1[C@H](C)CN(c2cc(-n3cnc(Nc4ccc(N5CCN(S(=O)(=O)c6ccc(C)cc6)CC5)cc4)n3)ccn2)C[C@@H]1C [Compound I-92]
< 0.5 µM | – | O=C(Nc1cc(-n2cnc(Nc3ccccc3)n2)ccn1)C1CCCCC1 [Compound I-93]
< 0.5 µM | – | O=C(Cc1ccccc1)Nc1cc(-n2cnc(Nc3ccccc3)n2)ccn1 [Compound I-96]
> 1 µM | – | c1ccc(-n2cnc(Nc3ccc(N4CCOCC4)cc3)n2)cc1 [Compound I-106]
> 1 µM | – | CC(C)(C)CC(=O)Nc1cc(-n2cnc(Nc3ccccc3)n2)ccn1 [Compound I-102]
